No end group written: not given here.
What was measured:
Streptococcus suis (Ss) [1] = format: cell-based
Experimental: (§1) The following strains were assessed vs. Staphylococcus epidermidis (Se), Pseudomonas aeruginosa (Pa), Streptococcus dysgalactiae (Sd), Pasteurella multocida (Pm), Streptococcus agalactiae (Sa), Streptococcus uberis (Su), Streptococcus suis (Ss), Mannheimia haemolytica (Mh), Bordatella bronchiseptica (Bb), Histophilus somnus (Hs), and Staphylococcus pseudintermedius (Sp) (Table 18) for Minimal Inhibitory Concentrations (MIC). Italics=excellent activity (less than or equal to 4 μg/ml).

[2] = system: Bordatella bronchiseptica (Bb); format: cell-based
Experimental: as §1

[3] = system: Pasteurella multocida (Pm); format: cell-based
Experimental: as §1

[4] = system: Streptococcus agalactiae (Sa); format: cell-based
Experimental: as §1

[5] = system: Staphylococcus pseudintermedius (Sp); format: cell-based
Experimental: as §1

[6] = system: Pseudomonas aeruginosa (Pa); format: cell-based
Experimental: as §1

[7] = system: Streptococcus uberis (Su); format: cell-based
Experimental: as §1

[8] = system: Staphylococcus epidermidis (Se); format: cell-based
Experimental: as §1

Histophilus somnus (Hs) [9] = format: cell-based
Experimental: as §1

[10] = system: Mannheimia haemolytica (Mh); format: cell-based
Experimental: as §1

[11] = system: Streptococcus dysgalactiae (Sd); format: cell-based
Experimental: as §1

PBMCs = experiment: Cytotoxicity towards PBMCs, lactate dehydrogenase (LDH) release assay (Tables 6, 7); conditions: SPOT synthesized peptide ~25 μM, PBMCs from 3 human donors; Table 6
S. aureus (Sau) [12] = format: cell-based; conditions: Sau
[13] = system: planktonic methicillin resistant S. aureus; experiment: microbe, parasite or virus in culture; format: cell-based, Staphylococcus aureus; conditions: planktonic methicillin resistant
E. coli (Ec) [14] = format: cell-based; conditions: Ec
Streptococcus suis (Ss) [15] = format: cell-based; remark: listed apart in the source
Experimental: (§2) The same strains as in Table 18 were assessed for Minimal Biofilm Inhibitory Concentrations (MBIC) (Table 19). Italics=excellent activity (less than or equal to 4 μg/ml). ND=Not determined. Peptides 3013, 3015 and 3016 inhibited biofilm growth in the largest number of bacterial strains (5, 5 and 6 out of 13 strains, respectively).

[16] = system: Bordatella bronchiseptica (Bb); format: cell-based; remark: listed apart in the source
Experimental: as §2

[17] = system: Pasteurella multocida (Pm); format: cell-based; remark: listed apart in the source
Experimental: as §2

[18] = system: Streptococcus agalactiae (Sa); format: cell-based; remark: listed apart in the source
Experimental: as §2

[19] = system: Staphylococcus pseudintermedius (Sp); format: cell-based; remark: listed apart in the source
Experimental: as §2

[20] = system: Pseudomonas aeruginosa (Pa); format: cell-based; remark: listed apart in the source
Experimental: as §2

[21] = system: Streptococcus uberis (Su); format: cell-based; remark: listed apart in the source
Experimental: as §2

[22] = system: Staphylococcus epidermidis (Se); format: cell-based; remark: listed apart in the source
Experimental: as §2

Histophilus somnus (Hs) [23] = format: cell-based; remark: listed apart in the source
Experimental: as §2

[24] = system: Mannheimia haemolytica (Mh); format: cell-based; remark: listed apart in the source
Experimental: as §2

[25] = system: Streptococcus dysgalactiae (Sd); format: cell-based; remark: listed apart in the source
Experimental: as §2

E. coli (Ec) [26] = format: cell-based; conditions: Ec; remark: listed apart in the source
Experimental: as §2
(§3) In addition, several peptides expressed preferential activity vs. biofilms (MBIC) cf. planktonic cells (MIC) (Table 20).

S. aureus (Sau) [27] = format: cell-based; conditions: Sau; remark: listed apart in the source
Experimental: as §2, §3

Substance | MIC Ss (Streptococcus suis (Ss) [1]) [µg/mL] | MIC Bb [2] [µg/mL] | MIC Pm [3] [µg/mL] | MIC Sa [4] [µg/mL] | MIC Sp [5] [µg/mL] | MIC Pa [6] [µg/mL] | MIC Su [7] [µg/mL] | MIC Se [8] [µg/mL] | MIC Hs (Histophilus somnus (Hs) [9]) [µg/mL] | MIC Mh [10] [µg/mL] | MIC Sd [11] [µg/mL] | % Toxicity (LDH Release) (PBMCs) [%] | MIC S. aureus (S. aureus (Sau) [12]) [µg/mL] | MIC Sau (S. aureus (Sau) [12]) [µg/mL] | MIC (μM) MHB [13] [µM] | MIC (μM) TSB with 1% Glucose [13] [µM] | MIC E. coli (E. coli (Ec) [14]) [µg/mL] | MIC Ec (E. coli (Ec) [14]) [µg/mL] | MBIC (Streptococcus suis (Ss) [15]) [µg/mL] | MBIC [16] [µg/mL] | other results
AVKWLGWILAKK-NH2 [Peptide 3016, AVKWLGWILAKK] | 32 | 64 | >64 | 8 | 8 | >64 | 16 | >64 | 16 | >64 | >64 | 0.8 | >64 | >64 | >64 | >64 | 64 | 64 | 32 | 64 | MBIC [17]: 8 µg/mL; MBIC [18]: 64 µg/mL; MBIC [19]: 8 µg/mL; MBIC [20]: 32 µg/mL; MBIC [21]: 8 µg/mL; MBIC [22]: 4 µg/mL; MBIC (Histophilus somnus (Hs) [23]): 4 µg/mL; MBIC [24]: >64 µg/mL; MBIC [25]: >64 µg/mL; MBIC (E. coli (Ec) [26]): 32 µg/mL; MBIC E. coli (E. coli (Ec) [26]): 32 µg/mL; MBIC (S. aureus (Sau) [27]): 4 µg/mL; MBIC S. aureus (S. aureus (Sau) [27]): 4 µg/mL
LAGLIVKWAGVR-NH2 [Peptide 3017, LAGLIVKWAGVR] | >64 | >64 | >64 | 32 | >64 | >64 | 64 | >64 | >64 | >64 | >64 | 5.9 | >64 | >64 | >64 | >64 | >64 | >64 | >64 | >64 | MBIC [17]: >64 µg/mL; MBIC [18]: >64 µg/mL; MBIC [19]: 64 µg/mL; MBIC [20]: >64 µg/mL; MBIC [21]: 16 µg/mL; MBIC [22]: >64 µg/mL; MBIC (Histophilus somnus (Hs) [23]): 32 µg/mL; MBIC [24]: >64 µg/mL; MBIC [25]: >64 µg/mL; MBIC (E. coli (Ec) [26]): >64 µg/mL; MBIC E. coli (E. coli (Ec) [26]): >64 µg/mL; MBIC (S. aureus (Sau) [27]): 4 µg/mL; MBIC S. aureus (S. aureus (Sau) [27]): 4 µg/mL
QLARLARVVWGL-NH2 [Peptide 3010, QLARLARVVWGL] | >64 | >64 | >64 | >64 | 64 | >64 | 64 | >64 | 64 | >64 | 32 | −2.4 | >64 | >64 | >64 | >64 | >64 | >64 | >64 | >64 | MBIC [17]: 4 µg/mL; MBIC [18]: >64 µg/mL; MBIC [19]: 64 µg/mL; MBIC [20]: >64 µg/mL; MBIC [21]: 32 µg/mL; MBIC [22]: >64 µg/mL; MBIC (Histophilus somnus (Hs) [23]): 64 µg/mL; MBIC [24]: >64 µg/mL; MBIC [25]: 16 µg/mL; MBIC (E. coli (Ec) [26]): 32 µg/mL; MBIC E. coli (E. coli (Ec) [26]): 32 µg/mL; MBIC (S. aureus (Sau) [27]): 64 µg/mL; MBIC S. aureus (S. aureus (Sau) [27]): 64 µg/mL
AVAKWALKLWKQ-NH2 [Peptide 3009, AVAKWALKLWKQ] | >64 | >64 | >64 | >64 | 4 | >64 | 32 | >64 | 64 | >64 | 32 | −3.2 | >64 | >64 | >64 | >64 | >64 | >64 | 16 | 64 | MBIC [17]: 16 µg/mL; MBIC [18]: >64 µg/mL; MBIC [19]: 8 µg/mL; MBIC [20]: >64 µg/mL; MBIC [21]: 16 µg/mL; MBIC [22]: >64 µg/mL; MBIC (Histophilus somnus (Hs) [23]): 16 µg/mL; MBIC [25]: 16 µg/mL; MBIC (E. coli (Ec) [26]): 32 µg/mL; MBIC E. coli (E. coli (Ec) [26]): 32 µg/mL; MBIC (S. aureus (Sau) [27]): 64 µg/mL; MBIC S. aureus (S. aureus (Sau) [27]): 64 µg/mL
